The subject of the experiment is SARS-CoV-2-Rep-NanoLuc-Neo-Nsp1^K164A/H165A replicon. It is filed as cell-based. To be noted: read-out: IC50, mean over stable replicon clones. (Replicon systems follow genome replication, usually without infectious particles.)

What is called IC50 is the concentration that inhibits the measured activity by half.

Consider `CC(C)C[C@H](NC(=O)OCc1ccccc1)C(=O)N[C@@H](CC1CCNC1=O)C(O)S(=O)(=O)O` (stereo partly shown) [GC376], for which the IC50 is 9.3 µM.

Source of the values: patent US20250250647A1, “STABLE CELL CLONES HARBORING REPLICATING SARS-COV-2 RNA” (priority 2021, published 2025).
